Series [1] is classed as physicochemical. The conditions noted are these: for Concentration measured by HPLC after treatment: pH 7 buffer, test temperature e.g. 20° C. The protocol:
A stock pH 7 buffer solution was prepared by adding aqueous sodium hydroxide solution (0.1 M, 145 mL) to aqueous potassium dihydrogen phosphate solution (0.1 M, 250 mL), and then adding sufficient distilled water to adjust the final volume to 500 mL. At least 1 time and up to about 5 times the amount of metsulfuron-methyl needed for saturation was added to a mixing vessel containing stock buffer solution at the test temperature (e.g., 20° C.). The mixture was magnetically stirred in the dark while being maintained at the test temperature. Samples were periodically removed for analysis. The samples were centrifuged using a high speed, temperature-controlled centrifuge at the test temperature for about 20 minutes at >12000 G to remove suspended particles. An aliquot of each supernatant was taken for analysis. The concentration of metsulfuron-methyl in the supernatant was determined by a high pressure liquid chromatography (HPLC) with a reversed phase chromatography column and UV detection. The method should include development of best-fit calibration curves based on at least three standards using linear regression analysis Samples were successively withdrawn from the mixing vessel and analyzed until three successive samples show little or no variation in concentration. The test is preferably replicated to ensure accuracy.

A short description of series [2]: Cleanout test (residue in polyethylene bottles extracted with acetonitrile). The conditions noted are these: dispersed in tap water, stood overnight, lower = more effective cleanout. The class given is physicochemical. The protocol: The test was conducted by dispersing in water a sample to produce a concentration that is normally used when applying the herbicide: 25% metsulfuron-methyl. The sample was added to tap water (300 mL) in a 400 mL beaker and magnetically stirred for 2 minutes. The mixture was then stirred for 2 minutes, whereupon the resulting dispersion was dispensed in three 100 mL aliquots to 4-oz (118 mL) polyethylene bottles. The bottles were capped, inverted twice and allowed to stand overnight.
After standing overnight, each individual bottle was inverted twice and the liquid contents were then poured out. Tap water (10 mL) was added and the bottle was inverted until all sediment was re-suspended, whereupon the contents were poured out. Tap water (100 mL) was added and the bottle was inverted twice and then allowed to stand undisturbed for 10 minutes. The bottle was inverted twice more and the contents were poured out. Acetonitrile (10 mL) was added to the bottle to extract any remaining material. The acetonitrile solution was analyzed by reversed-phase liquid chromatography with UV detection. The cleanout rating (the concentration of metsulfuron-methyl herbicide in the acetonitrile solution) is reported in % in Table 6 below.

Another series is described as follows: Viscosity when dissolved. It is filed as physicochemical.
For another series, the system named is weeds. The experiment in a line: Activity in controlling weeds. The conditions noted are these: in vivo.
Where [3] appears, read: OD formulation, original concentration 40%.
Where [4] appears, read: SG formulation, original concentration 25%.
The mark [5] stands for this setting: WG formulation, original concentration 25%.

Read-outs that look alike come from different tables or passages of the source.

Regarding `COC(=O)c1ccccc1S(=O)(=O)NC(=O)Nc1nc(C)nc(OC)n1` [Amorphous metsulfuron-methyl, methyl 2-[[[[(4-methoxy-6-methyl-1,3,5-triazin-2-yl)amino]carbonyl]amino]sulfonyl]benzoate, reference compound], the “Concentration measured by HPLC after treatment” value in series [1] (setting [3]) stood at 14%; in series [1] (setting [4]) it was 15%; in series [1] (setting [5]) it was 12%. The “Cleanout rating (concentration of metsulfuron-methyl in the acetonitrile solution)” value in series [2] (OD formulation) was 26%; in series [2] (SG formulation), 10%; in series [2] (WG formulation) it was 13%. Moreover, the “Viscosity (in words)” value in the series “Viscosity when dissolved” (listed as metsulfuron-methyl in amorphous state) is “highly viscous”.

As to `COC(=O)c1ccccc1S(=O)(=O)NC(=O)Nc1nc(C)nc(OC)n1` [Metsulfuron-methyl, crystalline modification I] [methyl 2-(4-methoxy-6-methyl-1,3,5-triazin-2-ylcarbamoylsulfamoyl)benzoate], in series [1], the “Solubility (in words)” value is on record as “significant increase”. For the same compound, the results for the “Concentration measured by HPLC after treatment” value in series [1] (setting [3]), in series [1] (setting [4]) and in series [1] (setting [5]) were 35%, 24.9% and 23%, respectively. The results for the “Cleanout rating (concentration of metsulfuron-methyl in the acetonitrile solution)” value in series [2] (OD formulation), in series [2] (SG formulation) and in series [2] (WG formulation) were 5%, 0.1% and 2%, respectively. Further, in the series “Viscosity when dissolved” (listed as crystalline modification I of metsulfuron-methyl), the “Viscosity (in words)” value is “significant decrease”. Besides, the “Activity in controlling weeds” value in the series with weeds is on record as “active in controlling weeds”.

These data come from patent US20170121293A1, “PROCESS FOR PREPARING A NOVEL CRYSTALLINE FORM OF METSULFURON-METHYL AND USE OF THE SAME” (ROTAM AGROCHEM INTERNATIONAL COMPANY LIMITED, priority 2015, published 2017).
